The term IC50 denotes the concentration that gives 50% inhibition.

Where a name gives a salt, the structure may show the parent alone.

For this assay, the target named is PDE10A (Homo sapiens (Human), UniProt Q9Y233). Description: Measurement of PDE activity (recombinant PDE, cAMP HTRF). It counts as biochemical. The settings on record: 20 nM cyclic nucleotide substrate, 60 minutes at 29 C. As for the experimental part: a) Measurement of PDE Activity
PDE10A, sequence (Q9Y233 whole entry, species assumed, canonical isoform): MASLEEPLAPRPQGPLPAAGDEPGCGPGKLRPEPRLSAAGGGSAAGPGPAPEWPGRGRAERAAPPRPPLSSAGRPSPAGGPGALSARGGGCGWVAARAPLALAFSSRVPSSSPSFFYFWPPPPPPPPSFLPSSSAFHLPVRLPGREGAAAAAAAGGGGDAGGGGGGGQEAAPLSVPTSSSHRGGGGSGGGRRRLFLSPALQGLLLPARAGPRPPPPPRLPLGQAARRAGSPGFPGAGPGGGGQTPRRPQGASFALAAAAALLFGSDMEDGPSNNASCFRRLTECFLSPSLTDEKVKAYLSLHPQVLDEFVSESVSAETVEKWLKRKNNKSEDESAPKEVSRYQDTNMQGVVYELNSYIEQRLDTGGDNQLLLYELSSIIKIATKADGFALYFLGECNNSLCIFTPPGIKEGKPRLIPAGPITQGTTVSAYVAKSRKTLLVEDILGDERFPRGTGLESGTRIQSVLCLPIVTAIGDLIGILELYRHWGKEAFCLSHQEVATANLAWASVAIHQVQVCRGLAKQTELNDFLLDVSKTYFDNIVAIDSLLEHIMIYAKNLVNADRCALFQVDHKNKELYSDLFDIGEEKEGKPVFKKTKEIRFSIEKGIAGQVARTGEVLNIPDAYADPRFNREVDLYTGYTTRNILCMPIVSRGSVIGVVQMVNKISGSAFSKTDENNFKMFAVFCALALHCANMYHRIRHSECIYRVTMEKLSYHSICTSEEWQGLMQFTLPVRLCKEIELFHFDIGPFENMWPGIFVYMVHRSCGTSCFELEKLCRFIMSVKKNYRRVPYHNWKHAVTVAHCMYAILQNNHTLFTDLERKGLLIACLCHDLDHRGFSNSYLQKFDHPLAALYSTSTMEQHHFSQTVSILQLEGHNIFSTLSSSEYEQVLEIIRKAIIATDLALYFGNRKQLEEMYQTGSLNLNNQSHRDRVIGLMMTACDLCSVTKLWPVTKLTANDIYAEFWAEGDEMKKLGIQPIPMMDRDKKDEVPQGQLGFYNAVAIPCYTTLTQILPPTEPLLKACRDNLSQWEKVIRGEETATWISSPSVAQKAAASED
The recombinant PDE proteins are used in in vitro enzymatic reaction for measurement of PDE activity. These recombinant proteins, including PDE10A (human, rat and mouse PDE10) and isoforms of PDEs 1, 3, 4, and 5, were purchased from commercial vendor BPS Bioscience. The enzymatic activity of PDEs was determined by cAMP measurement kit from CisBio (IBA) using HTRF technology.
The PDE enzymatic reaction was carried out in assay buffer (20 mM Tris-HCl pH7.5, 10 mM MgCl2, 0.1% bovine serum albumin) containing enzyme and substrate. […] The substrate cyclic nucleotide (cAMP or cGMP) concentration used in the assay was 20 nM for PDE10, and 100 nM for other PDEs. The inhibitory effect of compound was determined by incubating various concentration of inhibitor in the enzymatic assay. […] Next, the compound at varying concentration was mixed with PDE enzyme. The reaction was initiated by addition of cyclic nucleotide substrate, and incubated for 60 minutes at 29 C. The reaction was stopped by addition of lysis buffer from assay kit. The cAMP-d2 and anti-cAMP cryptate in the lysis buffer detected the level of cAMP left from the PDE hydrolysis reaction. […] Thus, IC50 value of inhibitor can be obtained by plotting inhibitor concentration against PDE activity at that concentration.
`CCC(CC)n1cc(C(=O)NCc2ccc(F)c(F)c2)c2cc(OC)c(OC)cc2c1=O` [Example 189, 2-(1-Ethyl-propyl)-6,7-dimethoxy-1-oxo-1,2-dihydro-isoquinoline-4-carboxylic acid 3,4-difluoro-benzylamide]: the IC50 was 100 to 200 nM. Under `CCn1cc(C(=O)Nc2ccccc2OC)c2cc(OC)c(OC)cc2c1=O` [Example 146, 2-Ethyl-6,7-dimethoxy-N-(2-methoxyphenyl)-1-oxo-1,2-dihydroisoquinoline-4-carboxamide] stands 200 to 500 nM. In the case of `CCn1cc(C(=O)NCc2ccc(C)cc2OCC(F)(F)F)c2cc(OC)c(OC)cc2c1=O` [Example 288, 2-Ethyl-6,7-dimethoxy-N-[[4-methyl-2-(2,2,2-trifluoroethoxy)phenyl]methyl]-1-oxo-isoquinoline-4-carboxamide], the half-maximal inhibitory concentration (IC50) was 200 to 500 nM. Under `CCn1cc(C(=O)NCc2ccc(C)cc2OC)c2cc(OC)c(OC)cc2c1=O` [Example 308, 2-Ethyl-6,7-dimethoxy-N-(2-methoxy-4-methylbenzyl)-1-oxo-1,2-dihydroisoquinoline-4-carboxamide] stands 200 to 500 nM. As for `CCn1cc(C(=O)NCc2ccc(C)cc2OC2CCOC2)c2cc(OC)c(OC)cc2c1=O` (stereo not shown) [Example 303, 2-Ethyl-6,7-dimethoxy-N-(4-methyl-2-(tetrahydrofuran-3-yloxy)benzyl)-1-oxo-1,2-dihydroisoquinoline-4-carboxamide], the IC50 lay within 200 to 500 nM. To `CCCCCNC(=O)c1cn(CC)c(=O)c2cc(OC)c(OC)cc12` [Example 21, 2-Ethyl-6,7-dimethoxy-1-oxo-1,2-dihydro-isoquinoline-4-carboxylic acid pentylamide] belongs 200 to 500 nM.

Take `CCCC(C)NC(=O)c1cn(CC)c(=O)c2cc(OC)c(OC)cc12` (stereo not shown) [Example 15, 2-Ethyl-6,7-dimethoxy-1-oxo-1,2-dihydro-isoquinoline-4-carboxylic acid (1-methyl-butyl)-amide]: the IC50 lay in the range of 200 to 500 nM. To `CCn1cc(C(=O)NCc2ccncn2)c2cc(OC)c(OC)cc2c1=O` [Example 139, 2-Ethyl-6,7-dimethoxy-1-oxo-N-(pyrimidin-4-ylmethyl)-1,2-dihydroisoquinoline-4-carboxamide] belongs 200 to 500 nM; to `CCC(CC)n1cc(C(=O)NCc2ccccc2CN(C)C)c2cc(OC)c(OC)cc2c1=O` [Example 187, 2-(1-Ethyl-propyl)-6,7-dimethoxy-1-oxo-1,2-dihydro-isoquinoline-4-carboxylic acid 2-dimethylaminomethyl-benzylamide hydrochloride], 200 to 500 nM; to `CCn1cc(C(=O)NCc2ccc(C)cc2F)c2cc(OC)c(OC)cc2c1=O` [Example 273, 2-Ethyl-N-[(2-fluoro-4-methyl-phenyl)methyl]-6,7-dimethoxy-1-oxo-isoquinoline-4-carboxamide], 200 to 500 nM. To `CCn1cc(C(=O)NCc2ccc(C)c(F)c2F)c2cc(OC)c(OC)cc2c1=O` [Example 278, N-[(2,3-Difluoro-4-methyl-phenyl)methyl]-2-ethyl-6,7-dimethoxy-1-oxo-isoquinoline-4-carboxamide] belongs 200 to 500 nM; to `CCCCNC(=O)c1cn(CCc2ccc3ccccc3n2)c(=O)c2cc(OC)ccc12` [Example 182, 7-Methoxy-1-oxo-2-(2-quinolin-2-yl-ethyl)-1,2-dihydro-isoquinoline-4-carboxylic acid butylamide], 100 to 200 nM; to `CCn1cc(C(=O)NCc2ccc(C)cc2OC(C)(C)CC)c2cc(OC)c(OC)cc2c1=O` [Example 277, N-[[2-(1,1-Dimethylpropoxy)-4-methyl-phenyl]methyl]-2-ethyl-6,7-dimethoxy-1-oxo-isoquinoline-4-carboxamide], 200 to 500 nM.

Regarding `CCn1cc(C(=O)NCc2cc(F)cc(F)c2)c2cc(OC)c(OC)cc2c1=O` [Example 37, 2-Ethyl-6,7-dimethoxy-1-oxo-1,2-dihydro-isoquinoline-4-carboxylic acid 3,5-difluoro-benzylamide], the IC50 lay within 100 to 200 nM. Turning to `CCC(CC)n1cc(C(=O)NC2CCc3cc(C)ccc32)c2cc(OC)c(OC)cc2c1=O` (stereo not shown) [Example 253, 6,7-Dimethoxy-N-(5-methyl-2,3-dihydro-1H-inden-1-yl)-1-oxo-2-(pentan-3-yl)-1,2-dihydroisoquinoline-4-carboxamide], the IC50 was less than 100 nM. Under `CCC(C)CNC(=O)c1cn(CC)c(=O)c2cc(OC)c(OC)cc12` (stereo not shown) [Example 20, 2-Ethyl-6,7-dimethoxy-1-oxo-1,2-dihydro-isoquinoline-4-carboxylic acid (2-methyl-butyl)-amide] stands 200 to 500 nM. For the compound `COc1cc2c(C(=O)NC3CCc4ccccc43)cn(CCc3ccc4ccccc4n3)c(=O)c2cc1OC` (stereo not shown) [Example 323, N-Indan-1-yl-6,7-dimethoxy-1-oxo-2-[2-(2-quinolyl)ethyl]isoquinoline-4-carboxamide; 2,2,2-trifluoroacetic acid], the half-maximal inhibitory concentration (IC50) lay in the range of 200 to 500 nM. Under `CCn1cc(C(=O)NCc2ccc(F)cc2F)c2cc(OC)c(OC)cc2c1=O` [Example 34, 2-Ethyl-6,7-dimethoxy-1-oxo-1,2-dihydro-isoquinoline-4-carboxylic acid 2,4-difluoro-benzylamide] stands 200 to 500 nM; under `CCC(CC)n1cc(C(=O)NC2CCc3sccc32)c2cc(OC)c(OC)cc2c1=O` (stereo not shown) [Example 193, 2-(1-Ethyl-propyl)-6,7-dimethoxy-1-oxo-1,2-dihydro-isoquinoline-4-carboxylic acid (5,6-dihydro-4H-cyclopenta[b]thiophen-4-yl)-amide], less than 100 nM; under `CCn1cc(C(=O)NCc2ccc(C)cc2OCCOC)c2cc(OC)c(OC)cc2c1=O` [Example 293, 2-Ethyl-6,7-dimethoxy-N-[[2-(2-methoxyethoxy)-4-methyl-phenyl]methyl]-1-oxo-isoquinoline-4-carboxamide], 200 to 500 nM. To `CCCCNC(=O)c1cn(CC)c(=O)c2cc(OC)c(OC)cc12` [Example 1, 2-Ethyl-6,7-dimethoxy-1-oxo-1,2-dihydro-isoquinoline-4-carboxylic acid butylamide] belongs 100 to 200 nM.

Turning to `CCn1cc(C(=O)NC2CCc3cc(Cl)ccc32)c2cc(OC)c(OC)cc2c1=O` (stereo not shown) [Example 169, N-(5-Chloro-2,3-dihydro-1H-inden-1-yl)-2-ethyl-6,7-dimethoxy-1-oxo-1,2-dihydroisoquinoline-4-carboxamide], the IC50 fell in the range of 200 to 500 nM. To `CCn1cc(C(=O)Nc2cccc(C)c2)c2cc(OC)c(OC)cc2c1=O` [Example 145, 2-Ethyl-6,7-dimethoxy-1-oxo-N-m-tolyl-1,2-dihydroisoquinoline-4-carboxamide] belongs 200 to 500 nM; to `CCC(CC)n1cc(C(=O)NCc2sccc2C)c2cc(OC)c(OC)cc2c1=O` [Example 258, 6,7-Dimethoxy-N-((3-methylthiophen-2-yl)methyl)-1-oxo-2-(pentan-3-yl)-1,2-dihydroisoquinoline-4-carboxamide], 100 to 200 nM; to `CCC(CC)n1cc(C(=O)NCc2ccoc2C)c2cc(OC)c(OC)cc2c1=O` [Example 268, 6,7-Dimethoxy-N-((2-methylfuran-3-yl)methyl)-1-oxo-2-(pentan-3-yl)-1,2-dihydroisoquinoline-4-carboxamide], 200 to 500 nM.

For the origin of these results see patent US9856220B2 (AbbVie Deutschland GmbH & Co. KG, priority 2011, dated 2018).
